Data from paper PMC4795001 (Chemical communications (Cambridge, England), 2015).
Read-outs that look alike come from different tables or passages of the source. Values belong to the molecule of their own block, whether it stands above or below them.

Legend:
[1] = target: T1, holo-TycB1 (recombinant) (Brevibacillus parabrevis, UniProt O30408); assay: coupled hydroxamate-MesG continuous spectrophotometric assay; format: biochemical
T1 sequence (O30408 1-1080 limits assumed): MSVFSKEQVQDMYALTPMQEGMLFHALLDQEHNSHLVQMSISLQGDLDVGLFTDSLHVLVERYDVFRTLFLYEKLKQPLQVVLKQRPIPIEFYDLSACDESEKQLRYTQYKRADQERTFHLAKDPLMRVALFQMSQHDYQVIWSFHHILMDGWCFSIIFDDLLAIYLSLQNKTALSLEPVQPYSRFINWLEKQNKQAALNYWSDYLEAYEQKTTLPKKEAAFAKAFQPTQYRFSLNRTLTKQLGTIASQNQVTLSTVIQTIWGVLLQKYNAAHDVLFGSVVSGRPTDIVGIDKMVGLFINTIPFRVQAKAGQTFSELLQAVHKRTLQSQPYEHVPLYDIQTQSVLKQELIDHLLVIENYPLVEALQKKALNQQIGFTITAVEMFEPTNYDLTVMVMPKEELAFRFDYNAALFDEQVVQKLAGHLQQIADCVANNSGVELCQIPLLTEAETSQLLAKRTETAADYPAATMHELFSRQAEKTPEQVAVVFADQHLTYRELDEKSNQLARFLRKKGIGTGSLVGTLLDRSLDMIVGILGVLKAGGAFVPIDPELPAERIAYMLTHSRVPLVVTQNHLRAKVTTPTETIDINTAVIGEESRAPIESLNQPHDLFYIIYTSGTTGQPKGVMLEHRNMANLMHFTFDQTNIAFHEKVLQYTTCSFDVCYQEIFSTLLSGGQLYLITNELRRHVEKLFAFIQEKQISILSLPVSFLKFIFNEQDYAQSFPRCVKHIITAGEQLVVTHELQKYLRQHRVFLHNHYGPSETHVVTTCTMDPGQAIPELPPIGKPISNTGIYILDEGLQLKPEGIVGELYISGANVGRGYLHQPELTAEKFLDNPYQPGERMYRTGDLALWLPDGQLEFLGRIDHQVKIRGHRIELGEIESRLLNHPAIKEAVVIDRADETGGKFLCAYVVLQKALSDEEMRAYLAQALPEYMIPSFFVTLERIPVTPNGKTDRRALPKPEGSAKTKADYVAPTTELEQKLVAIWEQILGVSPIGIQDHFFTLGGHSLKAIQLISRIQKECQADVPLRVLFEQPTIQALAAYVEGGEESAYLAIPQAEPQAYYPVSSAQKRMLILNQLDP

[2] = target: T2, holo-GrsA (recombinant) (Aneurinibacillus migulanus, UniProt P0C061); assay: as above; format: biochemical; conditions: read-out: Ki^app; tight-binding; A domain active site
T2 sequence (P0C061 1-1098): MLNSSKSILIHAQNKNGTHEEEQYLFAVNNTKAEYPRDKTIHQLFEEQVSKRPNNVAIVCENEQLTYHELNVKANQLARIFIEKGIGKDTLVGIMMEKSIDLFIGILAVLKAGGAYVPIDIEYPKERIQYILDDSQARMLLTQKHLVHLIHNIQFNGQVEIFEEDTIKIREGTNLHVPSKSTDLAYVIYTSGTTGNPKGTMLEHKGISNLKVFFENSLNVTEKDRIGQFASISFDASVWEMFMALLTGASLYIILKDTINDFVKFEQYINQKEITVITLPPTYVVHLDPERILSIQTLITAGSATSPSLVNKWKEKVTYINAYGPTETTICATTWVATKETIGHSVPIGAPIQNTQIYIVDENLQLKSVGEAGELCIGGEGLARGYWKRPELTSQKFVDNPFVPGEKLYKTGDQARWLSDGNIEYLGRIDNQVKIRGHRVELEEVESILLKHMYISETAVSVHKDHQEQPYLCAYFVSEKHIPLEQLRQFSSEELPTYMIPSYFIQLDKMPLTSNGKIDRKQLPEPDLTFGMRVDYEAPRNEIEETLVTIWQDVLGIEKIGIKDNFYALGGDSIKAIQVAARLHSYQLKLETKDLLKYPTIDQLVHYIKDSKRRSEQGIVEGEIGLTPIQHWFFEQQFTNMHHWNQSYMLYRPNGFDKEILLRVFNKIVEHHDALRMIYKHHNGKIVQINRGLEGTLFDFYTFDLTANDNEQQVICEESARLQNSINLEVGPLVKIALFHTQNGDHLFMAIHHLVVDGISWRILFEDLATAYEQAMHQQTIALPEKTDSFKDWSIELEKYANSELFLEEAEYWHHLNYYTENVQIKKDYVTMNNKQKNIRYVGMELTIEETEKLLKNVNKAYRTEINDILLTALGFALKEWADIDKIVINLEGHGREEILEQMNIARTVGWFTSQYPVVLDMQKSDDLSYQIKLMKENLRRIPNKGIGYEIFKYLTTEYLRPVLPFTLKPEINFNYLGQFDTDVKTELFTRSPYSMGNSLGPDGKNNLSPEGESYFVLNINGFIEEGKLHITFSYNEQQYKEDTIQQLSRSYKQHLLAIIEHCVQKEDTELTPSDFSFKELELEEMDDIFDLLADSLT

- Ki [1]: 0.431 ± 0.042 µM
Molecule: Nc1ncnc2c1ncn2[C@@H]1O[C@H](COS(=O)(=O)NC(=O)[C@@H]2CCCN2)[C@@H](O)[C@H]1O [compound 5, L-Pro-AMS]

- Ki [2]: 0.00143 ± 0.00019 µM
Molecule: L-Phe-AMS-BPyne [compound 1]

- Ki ([1]; read-out: Ki^app, tight-binding, A domain active site): 0.327 ± 0.017 µM
Molecule: L-Pro-AMS-BPyne [compound 2]
